Test results reported in ChEMBL document CHEMBL1240385, “Detection of KPC in Acinetobacter spp. in Puerto Rico” (2010).
≈ marks a conversion by molar mass, not a printed value.

How the values were obtained:
Type in all cases: functional
[1] = system: Acinetobacter calcoaceticus/baumannii complex; assay: (§1) Antibacterial activity against Acinetobacter calcoaceticus/baumannii complex isolate M3AC9-6 expressing KPC beta lactamase
[2] = system: Acinetobacter calcoaceticus/baumannii complex; assay: (§2) Antibacterial activity against Acinetobacter calcoaceticus/baumannii complex isolate M2AC9-31 expressing KPC beta lactamase
[3] = system: Acinetobacter calcoaceticus/baumannii complex; assay: (§3) Antibacterial activity against Acinetobacter calcoaceticus/baumannii complex isolate N2AC9-18 expressing KPC beta lactamase
[4] = system: Acinetobacter calcoaceticus/baumannii complex; assay: (§4) Antibacterial activity against Acinetobacter calcoaceticus/baumannii complex isolate M3AC9-7 expressing KPC beta lactamase
[5] = system: Acinetobacter calcoaceticus/baumannii complex; assay: (§5) Antibacterial activity against Acinetobacter calcoaceticus/baumannii complex isolate W2AC8-S10 expressing OXA-51
Pseudomonas aeruginosa = assay: Antibacterial activity against Pseudomonas aeruginosa ATCC 27853 […]
[6] = system: Acinetobacter calcoaceticus/baumannii complex; assay: (§6) Antibacterial activity against Acinetobacter calcoaceticus/baumannii complex isolate MC1AC9-26 expressing KPC beta lactamase
[7] = system: Acinetobacter calcoaceticus/baumannii complex; assay: (§7) Antibacterial activity against Acinetobacter calcoaceticus/baumannii complex isolate N2AC9-19 expressing KPC beta lactamase
[8] = system: Acinetobacter calcoaceticus/baumannii complex; assay: (§8) Antibacterial activity against Acinetobacter calcoaceticus/baumannii complex isolate M3AC9-2 expressing KPC beta lactamase
[9] = system: Acinetobacter calcoaceticus/baumannii complex; assay: (§9) Antibacterial activity against Acinetobacter calcoaceticus/baumannii complex isolate M3AC9-4 expressing KPC beta lactamase
[10] = system: Acinetobacter calcoaceticus/baumannii complex; assay: (§10) Antibacterial activity against Acinetobacter calcoaceticus/baumannii complex isolate C1AC9-24 expressing KPC beta lactamase
[11] = system: Acinetobacter calcoaceticus/baumannii complex; assay: (§11) Antibacterial activity against Acinetobacter calcoaceticus/baumannii complex isolate MC4AC9-30 expressing KPC beta lactamase
Escherichia coli = assay: Antibacterial activity against Escherichia coli ATCC 25922 […]
[12] = as §1
[13] = as §2
[14] = as §3
[15] = as §4
[16] = as §5
[17] = as §6
[18] = as §7
[19] = as §8
[20] = as §9
[21] = as §10
[22] = as §11

Compound	MIC (Pseudomonas aeruginosa)	MIC (Escherichia coli)	MIC [12]	MIC [13]	MIC [14]	MIC [15]	MIC [16]	MIC [17]	MIC [18]	MIC [19]	MIC [20]	MIC [21]	MIC [22]	other results
COLISTIN	1 µg/mL	0.25 µg/mL												MIC [1]: 1 µg/mL; MIC [2]: 0.5 µg/mL; MIC [3]: 0.5 µg/mL; MIC [4]: 1 µg/mL; MIC [5]: 0.25 µg/mL; MIC [6]: 0.5 µg/mL; MIC [7]: 0.5 µg/mL; MIC [8]: 0.5 µg/mL; MIC [9]: 1 µg/mL; MIC [10]: 1 µg/mL; MIC [11]: 0.5 µg/mL
GENTAMICIN	< 1 µg/mL	1 µg/mL												MIC [1]: 2 µg/mL; MIC [2]: > 8 µg/mL; MIC [3]: > 8 µg/mL; MIC [4]: < 1 µg/mL; MIC [5]: 1 µg/mL; MIC [6]: 8 µg/mL; MIC [7]: > 8 µg/mL; MIC [8]: 2 µg/mL; MIC [9]: > 8 µg/mL; MIC [10]: > 8 µg/mL; MIC [11]: > 8 µg/mL
CN(C)c1cc(NC(=O)CNC(C)(C)C)c(O)c2c1C[C@H]1C[C@H]3[C@H](N(C)C)C(O)=C(C(N)=O)C(=O)[C@@]3(O)C(O)=C1C2=O [TIGECYCLINE]	8 µg/mL (≈ 13.7 µM)	0.25 µg/mL (≈ 0.427 µM)	0.5 µg/mL (≈ 0.854 µM)	1 µg/mL (≈ 1.71 µM)	1 µg/mL (≈ 1.71 µM)	0.5 µg/mL (≈ 0.854 µM)	< 0.25 µg/mL	2 µg/mL (≈ 3.41 µM)	2 µg/mL (≈ 3.41 µM)	0.5 µg/mL (≈ 0.854 µM)	0.25 µg/mL (≈ 0.427 µM)	1 µg/mL (≈ 1.71 µM)	0.5 µg/mL (≈ 0.854 µM)	
C[C@H]1COc2c(N3CCN(C)CC3)c(F)cc3c(=O)c(C(=O)O)cn1c23.C[C@H]1COc2c(N3CCN(C)CC3)c(F)cc3c(=O)c(C(=O)O)cn1c23.O [LEVOFLOXACIN]	< 1 µg/mL		> 8 µg/mL	> 8 µg/mL	> 8 µg/mL	> 8 µg/mL	1 µg/mL	> 8 µg/mL	> 8 µg/mL	> 8 µg/mL	> 8 µg/mL	> 8 µg/mL	> 8 µg/mL	
POLYMYXIN B	1 µg/mL	0.25 µg/mL												MIC [1]: 0.5 µg/mL; MIC [2]: < 0.25 µg/mL; MIC [3]: < 0.25 µg/mL; MIC [4]: 0.5 µg/mL; MIC [5]: 0.5 µg/mL; MIC [6]: < 0.25 µg/mL; MIC [7]: < 0.25 µg/mL; MIC [8]: < 0.25 µg/mL; MIC [9]: < 0.25 µg/mL; MIC [10]: 0.5 µg/mL; MIC [11]: 0.5 µg/mL
C[C@@H](O)[C@H]1C(=O)N2C(C(=O)O)=C(S[C@@H]3CN[C@H](CNS(N)(=O)=O)C3)[C@H](C)[C@H]12 [DORIPENEM]	0.5 µg/mL (≈ 1.19 µM)	0.12 µg/mL (≈ 0.285 µM)	> 2 µg/mL	> 2 µg/mL	> 2 µg/mL	> 2 µg/mL	0.12 µg/mL (≈ 0.285 µM)	> 2 µg/mL	> 2 µg/mL	> 2 µg/mL	> 2 µg/mL	> 2 µg/mL	> 2 µg/mL	
O=C(O)c1cn(C2CC2)c2cc(N3CCNCC3)c(F)cc2c1=O [CIPROFLOXACIN]							0.25 µg/mL (≈ 0.754 µM)							
CO/N=C(\C(=O)N[C@@H]1C(=O)N2C(C(=O)[O-])=C(C[N+]3(C)CCCC3)CS[C@H]12)c1csc(N)n1	< 2 µg/mL	2 µg/mL (≈ 4.16 µM)	> 16 µg/mL	> 16 µg/mL	> 16 µg/mL	> 16 µg/mL	2 µg/mL (≈ 4.16 µM)	> 16 µg/mL	> 16 µg/mL	> 16 µg/mL	> 16 µg/mL	> 16 µg/mL	> 16 µg/mL	
CN(C)c1ccc(O)c2c1C[C@H]1C[C@H]3[C@H](N(C)C)C(O)=C(C(N)=O)C(=O)[C@@]3(O)C(O)=C1C2=O [MINOCYCLINE]	16 µg/mL (≈ 35 µM)	2 µg/mL (≈ 4.37 µM)	< 2 µg/mL	< 2 µg/mL	< 2 µg/mL	< 2 µg/mL	2 µg/mL (≈ 4.37 µM)	< 2 µg/mL	< 2 µg/mL	< 2 µg/mL	4 µg/mL (≈ 8.74 µM)	8 µg/mL (≈ 17.5 µM)	4 µg/mL (≈ 8.74 µM)	
C[C@@H](O)[C@H]1C(=O)N2C(C(=O)O)=C(SCCNC=N)C[C@H]12 [IMIPENEM ANHYDROUS]	2 µg/mL (≈ 6.68 µM)	1 µg/mL (≈ 3.34 µM)	> 8 µg/mL	8 µg/mL (≈ 26.7 µM)	> 8 µg/mL	> 8 µg/mL	1 µg/mL (≈ 3.34 µM)	8 µg/mL (≈ 26.7 µM)	> 8 µg/mL	> 8 µg/mL	> 8 µg/mL	4 µg/mL (≈ 13.4 µM)	8 µg/mL (≈ 26.7 µM)	
NCC[C@H](O)C(=O)N[C@@H]1C[C@H](N)[C@@H](O[C@H]2O[C@H](CN)[C@@H](O)[C@H](O)[C@H]2O)[C@H](O)[C@H]1O[C@H]1O[C@H](CO)[C@@H](O)[C@H](N)[C@H]1O [AMIKACIN]	< 4 µg/mL	4 µg/mL (≈ 6.83 µM)	> 32 µg/mL	> 32 µg/mL	> 32 µg/mL	> 32 µg/mL	4 µg/mL (≈ 6.83 µM)	> 32 µg/mL	> 32 µg/mL	> 32 µg/mL	> 32 µg/mL	> 32 µg/mL	> 32 µg/mL	
CC(C)(O/N=C(\C(=O)N[C@@H]1C(=O)N2C(C(=O)[O-])=C(C[n+]3ccccc3)CS[C@H]12)c1csc(N)n1)C(=O)O [CEFTAZIDIME]	2 µg/mL (≈ 3.66 µM)	1 µg/mL (≈ 1.83 µM)	> 16 µg/mL	> 16 µg/mL	> 16 µg/mL	> 16 µg/mL	2 µg/mL (≈ 3.66 µM)	> 16 µg/mL	> 16 µg/mL	> 16 µg/mL	> 16 µg/mL	> 16 µg/mL	> 16 µg/mL	
C[C@@H](O)[C@H]1C(=O)N2C(C(=O)O)=C(S[C@@H]3CN[C@H](C(=O)N(C)C)C3)[C@H](C)[C@H]12 [MEROPENEM]	< 1 µg/mL	1 µg/mL (≈ 2.61 µM)	> 8 µg/mL	> 8 µg/mL	> 8 µg/mL	> 8 µg/mL	1 µg/mL (≈ 2.61 µM)	> 8 µg/mL	> 8 µg/mL	> 8 µg/mL	> 8 µg/mL	4 µg/mL (≈ 10.4 µM)	> 8 µg/mL	
CO/N=C(\C(=O)N[C@@H]1C(=O)N2C(C(=O)O)=C(COC(C)=O)CS[C@H]12)c1csc(N)n1 [CEFOTAXIME]	16 µg/mL (≈ 35.1 µM)	1 µg/mL (≈ 2.2 µM)	> 32 µg/mL	> 32 µg/mL	> 32 µg/mL	> 32 µg/mL	4 µg/mL (≈ 8.78 µM)	> 32 µg/mL	> 32 µg/mL	> 32 µg/mL	> 32 µg/mL	> 32 µg/mL	> 32 µg/mL	
